From patent publication EP1652531A1, “Use of GLP-1 or Analogues in Treatment of Stroke” (Eli Lilly & Company, priority 1998, dated 2006)

Assays:
STC-1 cells = settings: exposure of STC-1 cells (Abella et al., 1994); cited from earlier work
NIDDM patients = assay: Infusion for three hours at each meal during the day, blood glucose in NIDDM patients (Example 2); settings: five NIDDM patients
[1] = tested on: patients having non-insulin dependent diabetes (NIDDM); assay: Overnight continuous subcutaneous infusion, blood glucose in NIDDM patients (Example 1); settings: five NIDDM patients; subcutaneous infusion 1.2 pmol/kg/hr for ten hours during the night

Compound: 12-O-tetradecanoylphobol-13-acetate [TPA]
- release of GLP-1 (STC-1 cells): significant increases

Compound: CC[C@H](C)[C@H](NC(=O)[C@H](Cc1ccccc1)NC(=O)[C@H](CCC(=O)O)NC(=O)[C@H](CCCCN)NC(=O)[C@H](C)NC(=O)[C@H](C)NC(=O)[C@H](CCC(N)=O)NC(=O)CNC(=O)[C@H](CCC(=O)O)NC(=O)[C@H](CC(C)C)NC(=O)[C@H](Cc1ccc(O)cc1)NC(=O)[C@H](CO)NC(=O)[C@H](CO)NC(=O)[C@@H](NC(=O)[C@H](CC(=O)O)NC(=O)[C@H](CO)NC(=O)[C@@H](NC(=O)[C@H](Cc1ccccc1)NC(=O)[C@@H](NC(=O)CNC(=O)[C@H](CCC(=O)O)NC(=O)[C@H](C)NC(=O)[C@@H](N)Cc1c[nH]cn1)[C@@H](C)O)[C@@H](C)O)C(C)C)C(=O)N[C@@H](C)C(=O)N[C@@H](Cc1c[nH]c2ccccc12)C(=O)N[C@@H](CC(C)C)C(=O)N[C@H](C(=O)N[C@@H](CCCCN)C(=O)NCC(=O)N[C@@H](CCCNC(=N)N)C(N)=O)C(C)C [GLP-1(7-36) amide]
- untoward side effects (NIDDM patients): No untoward side effects
- hypoglycemia [1]: without inducing hypoglycemia in any of the patients
